Laboratory results reported in patent US20260041703A1, “HYPERBRANCHED DEXTRINS FOR TOPICAL USE IN THE PREVENTION OR TREATMENT OF AT LEAST ONE SYMPTOM OF SKIN INFLAMMATION” (ROQUETTE FRERES, priority 2022, published 2026).

Key:
[1] = system: 3D reconstructed human epidermis; experiment: Membrane integrity (LDH release, colorimetry) in 3D reconstructed human epidermis model; type: cell-based
From the text: The aim of the study was to assess the membrane integrity of skin cells in a three-dimensional (3D) reconstructed human epidermis model, by measuring the amount of the enzyme lactate dehydrogenase (LDH) in the culture supernatant, using colorimetry. LDH is an enzyme that is released in the event of cell death. The absence of LDH secretion is a sign that the integrity of epidermal cell membranes is preserved. Samples of 3D reconstructed human epidermis were immersed in an aqueous solution containing 0.5% by weight of sodium lauryl sulfate, for 6 hours. […] The amount of LDH secreted into the supernatant was then determined colorimetrically.

[2] = system: reconstructed human epidermis (normal human epidermal keratinocytes, NHEK); experiment: MTT cell proliferation (viability) test on 2D reconstructed human epidermis after SLS inflammation; type: cell-based; settings: % of untreated control
Protocol: Irritating chemical compounds are able to penetrate the stratum corneum and are cytotoxic to cells in the underlying layers. […] Cell viability is measured upon metabolism, by mitochondrial succinic dehydrogenase, of the vital dye MTT [3-(4,5-dimethylthiazol-2-yl)-2,5-bromide diphenyltetrazolium, thiazolyl blue; EINECS number 206-069-5, CAS number 298-93-1)], to a blue formazan salt which is measured quantitatively after its extraction from tissues.
The colored solution is measured spectrophotometrically at 570 nm using the Molecular Devices Vmax microplate reader, and absorbance values are recorded using the SOFTmax PRO v4.7.1 software. Statistical analysis is performed using GraphPad Prism v5.03 software.
Cytotoxicity of samples was tested using the epidermis model and is expressed as a percentage of untreated control (UTC) tissue.

IL-8 = experiment: ELISA assay of inflammation marker IL-8 in supernatant of 2D reconstructed human epidermis; type: cell-based; settings: 0.5% SLS positive control (6 hours)
From the text: After washing, HRP-streptavidin is deposited in the wells. […] The inflammatory response is interpreted as a sample-to-untreated ratio greater than or equal to 2.
A ratio greater than or equal to 2 reflects overexpression of the inflammatory marker while a ratio less than 2 indicates non-expression of the inflammatory marker.

IL-1α [3] = experiment: Semi-quantitative fluorescence cytokine array (Human Cytokine Array G3), IL-1α; type: cell-based; settings: 0.5% SLS positive control (6 hours); fluorescent signal intensity
Protocol: (§1) Cell culture supernatants collected after epidermal treatment are tested using the Human Cytokine Array G3 kit (RayBiotech).
(§2) On a glass slide containing the different specific antibodies, supernatants are deposited at a rate of 100 μL per well. A cocktail of biotin-coupled secondary antibodies is then added. With the addition of streptavidin, signal intensities are detected by fluorescence. Each step is followed by several washes.
(§3) The ratios (fluorescent signal intensity of the marker in the presence of the samples/fluorescent signal intensity of the marker in the untreated control) were calculated for each treatment from n=3 epidermal culture supernatants (except for the untreated control, n=2).
(§4) A ratio >1.5 reflects overexpression of the inflammatory marker.
(§5) A ratio <0.65 indicates underexpression of the inflammatory marker.
(§6) According to the supplier's criteria, signals are usable when they are greater than the average of the background noise+2SD.

IL-1β = experiment: Semi-quantitative fluorescence cytokine array (Human Cytokine Array G3), IL-1β; type: cell-based; settings: 0.5% SLS positive control (6 hours)
Protocol: as §1, §2, §3, §4, §5, §6

RANTES = experiment: Semi-quantitative fluorescence cytokine array (Human Cytokine Array G3), RANTES; type: cell-based; settings: 0.5% SLS positive control (6 hours)
Protocol: as §1, §2, §3, §4, §5, §6

VEGF = experiment: Semi-quantitative fluorescence cytokine array (Human Cytokine Array G3), VEGF; type: cell-based; settings: 0.5% SLS positive control (6 hours)
Protocol: as §1, §2, §3, §4, §5, §6

IL-1α [4] = experiment: ELISA assay of inflammation marker IL-1α in supernatant of 2D reconstructed human epidermis; settings: 0.5% SLS positive control (6 hours)
Protocol: This model comprises a monolayer of normal human epidermal keratinocytes (NHEK, one of the main cell types of the skin), which have been cultured on inert polycarbonate inserts.
The epidermises were treated with a 0.5% aqueous solution of Sodium Lauryl Sulfate (SLS) for 6 hours to create inflammation of the reconstructed epidermis, then the surface of the epidermises was rinsed with 500 μL of PBS. 20 μL of different concentrations of hydrogenated and highly branched dextrins (10 and 5% in ultrapure water) and 0.05% Betamethasone cream (Biogaran cream, a corticoid with an anti-inflammatory role) were applied topically to the epidermis for 20 hours at 37° C. No application was made for the SLS control within 20 hours of rinsing with PBS. […]
For this, cell supernatants are collected after the required treatment time and commercially available ELISA kits are used to quantitatively determine the presence of inflammatory markers.
These ELISA kits are designed for quantitative measurement of the aforementioned markers, particularly in culture supernatants using specific human antibodies. […] A developer solution changes the color from blue to yellow, and its intensity is measured at 450 nm using the Molecular Devices Vmax microplate reader. Absorbance values are recorded and analyzed using SOFTmax PRO v4.7.1 software. […]

`CC(C)=CCC[C@](C)(O)C1CC=C(C)CC1` (stereo partly drawn) [bisabolol] was tested, and the “Membrane integrity (%)” value ([1]; 0.5% SLS (6 hours) + 0.5% bisabolol (20 hours)) was 16.8%.
With `C[C@H]1C[C@H]2[C@@H]3CCC4=CC(=O)C=C[C@]4(C)[C@@]3(F)[C@@H](O)C[C@]2(C)[C@@]1(O)C(=O)CO` [betamethasone] the “Membrane integrity (%)” value ([1]; 0.5% SLS (6 hours) + 0.5% betamethasone (20 hours)) was 110.7%.
For `CCCCCCCCCCCCOS(=O)(=O)[O-].[Na+]` [SLS, Sodium Lauryl Sulfate], the Viability % ([2]; 0.5% SLS positive control (6 hours)) was 82.1%, the Viability % ([2]; 2% SLS positive control, mean of 3 replicates) was 0.9% and the “IL-8 Sample:Untreated ratio” value (IL-8) was 3.2. For the same compound, the IL-8 assayed quantity (IL-8) was “(453 pg/mL)”, the “IL-1α Sample/Untreated ratio” value (IL-1α [3]) was 2.3 and the “IL-1β Sample/Untreated ratio” value (IL-1β) was 0.8. The “RANTES Sample/Untreated ratio” value (RANTES) was 6.7, the “VEGF Sample/Untreated ratio” value (VEGF) was 1.9 and the “IL-1a Sample:Untreated ratio” value (IL-1α [4]) was 2.3. For the same compound, the IL-1a assayed quantity (IL-1α [4]) was “(61 pg/mL)”.
